Literature values in PMC8679839, “Interleukin‐2‐inducible T‐cell kinase (Itk) signaling regulates potent noncanonical regulatory T cells” (Clinical and Translational Medicine, 2021).

Tested on: Tregs
From the text: Tregs are critical for the maintenance of tolerance, and transfer of Treg cells can ameliorate GVHD by restoring defective tolerance mechanisms.[41] One of the biggest challenges is to isolate functional Tregs in large numbers for immunotherapy.[42] This challenge is due to the low number of Tregs in peripheral blood.[4] Given their low numbers in the blood, it is difficult to obtain enough Tregs in the clinic for use as a therapy. If the number of collected canTregs and ncTregs could be increased for use in GVHD patients, such patients could be better protected from GVHD and other autoimmune ...

## CO[C@H]1C[C@@H]2CC[C@@H](C)[C@@](O)(O2)C(=O)C(=O)N2CCCC[C@H]2C(=O)O[C@H]([C@H](C)C[C@@H]2CC[C@@H](O)[C@H](OC)C2)CC(=O)[C@H](C)/C=C(\C)[C@@H](O)[C@@H](OC)C(=O)[C@H](C)C[C@H](C)/C=C/C=C/C=C/1C [rapamycin]
  Treg number after in vitro expansion: increases Tregs
  Treg suppressive function after in vitro expansion: reduces suppressive function
